Where a name gives a salt, the structure may show the parent alone. Values belong to the molecule of their own block, whether it stands above or below them. Calls of active or inactive are those of the source. The calls are words filed in the database; no cut-off is given here.
Legend:
HeLa [1] = experiment: Effect on HIF-1alpa protein expression in human HeLa cells at 1 to 100 uM incubated under hypoxia condition for 8 hrs by Western blot analysis; type: functional, cell-based; conditions: dose 1-100 µM
[2] = Inhibition of HIF transcriptional activity in human HeLa cells harbouring HRE-luc preincubated for 1 hr under normoxic condition followed by 8 hrs incubation under hypoxic condition by luciferase reporter assay; type: cell-based
HeLa [3] = experiment: Effect on HIF-1alpa mRNA expression in human HeLa cells at 1 to 100 uM incubated under hypoxia condition for 8 hrs by real-time analysis; type: functional, cell-based; conditions: dose 1-100 µM
HeLa [4] = experiment: Downregulation of CAIX mRNA expression in human HeLa cells at 1 to 100 uM incubated under hypoxia condition for 8 hrs by real-time analysis; type: functional, cell-based; conditions: dose 1-100 µM
HeLa [5] = experiment: Downregulation of BAX mRNA expression in human HeLa cells at 1 to 100 uM incubated under hypoxia condition for 8 hrs by RT-PCR analysis; type: functional, cell-based; conditions: dose 1-100 µM
HeLa [6] = experiment: Effect on p53 mRNA expression in human HeLa cells at 1 to 100 uM incubated under hypoxia condition for 8 hrs by RT-PCR analysis; type: functional, cell-based; conditions: dose 1-100 µM
HeLa [7] = experiment: Downregulation of c-MYC mRNA expression in human HeLa cells at 1 to 100 uM incubated under hypoxia condition for 8 hrs by RT-PCR analysis; type: functional, cell-based; conditions: dose 1-100 µM
HeLa [8] = experiment: Effect on STAT3 mRNA expression in human HeLa cells at 1 to 100 uM incubated under hypoxia condition for 8 hrs by RT-PCR analysis; type: functional, cell-based; conditions: dose 1-100 µM
[9] = target: T1, Histone acetyltransferase p300/Hypoxia-inducible factor 1-alpha (Homo sapiens, UniProt Q09472+Q16665); experiment: Inhibition of HIF-1alpha/p300 PPI (unknown origin); type: protein-complex assay
[10] = target: T1, Histone acetyltransferase p300/Hypoxia-inducible factor 1-alpha; experiment: Inhibition of HIF-1alpha(unknown origin)/human p300 CH1 domain (323 to 423 residues) PPI extracted from Escherichia coli incubated for 1 hr by SpectraMax iD5 MultiMode microplate reader analysis; type: protein-complex assay
[11] = target: Histone acetyltransferase p300 (Homo sapiens, UniProt Q09472); experiment: Inhibition of p300 CH1 domain (unknown origin) by tryptophan fluorescence spectroscopy analysis
Chain of Histone acetyltransferase p300 (Q09472 whole entry, the tested form may be a part): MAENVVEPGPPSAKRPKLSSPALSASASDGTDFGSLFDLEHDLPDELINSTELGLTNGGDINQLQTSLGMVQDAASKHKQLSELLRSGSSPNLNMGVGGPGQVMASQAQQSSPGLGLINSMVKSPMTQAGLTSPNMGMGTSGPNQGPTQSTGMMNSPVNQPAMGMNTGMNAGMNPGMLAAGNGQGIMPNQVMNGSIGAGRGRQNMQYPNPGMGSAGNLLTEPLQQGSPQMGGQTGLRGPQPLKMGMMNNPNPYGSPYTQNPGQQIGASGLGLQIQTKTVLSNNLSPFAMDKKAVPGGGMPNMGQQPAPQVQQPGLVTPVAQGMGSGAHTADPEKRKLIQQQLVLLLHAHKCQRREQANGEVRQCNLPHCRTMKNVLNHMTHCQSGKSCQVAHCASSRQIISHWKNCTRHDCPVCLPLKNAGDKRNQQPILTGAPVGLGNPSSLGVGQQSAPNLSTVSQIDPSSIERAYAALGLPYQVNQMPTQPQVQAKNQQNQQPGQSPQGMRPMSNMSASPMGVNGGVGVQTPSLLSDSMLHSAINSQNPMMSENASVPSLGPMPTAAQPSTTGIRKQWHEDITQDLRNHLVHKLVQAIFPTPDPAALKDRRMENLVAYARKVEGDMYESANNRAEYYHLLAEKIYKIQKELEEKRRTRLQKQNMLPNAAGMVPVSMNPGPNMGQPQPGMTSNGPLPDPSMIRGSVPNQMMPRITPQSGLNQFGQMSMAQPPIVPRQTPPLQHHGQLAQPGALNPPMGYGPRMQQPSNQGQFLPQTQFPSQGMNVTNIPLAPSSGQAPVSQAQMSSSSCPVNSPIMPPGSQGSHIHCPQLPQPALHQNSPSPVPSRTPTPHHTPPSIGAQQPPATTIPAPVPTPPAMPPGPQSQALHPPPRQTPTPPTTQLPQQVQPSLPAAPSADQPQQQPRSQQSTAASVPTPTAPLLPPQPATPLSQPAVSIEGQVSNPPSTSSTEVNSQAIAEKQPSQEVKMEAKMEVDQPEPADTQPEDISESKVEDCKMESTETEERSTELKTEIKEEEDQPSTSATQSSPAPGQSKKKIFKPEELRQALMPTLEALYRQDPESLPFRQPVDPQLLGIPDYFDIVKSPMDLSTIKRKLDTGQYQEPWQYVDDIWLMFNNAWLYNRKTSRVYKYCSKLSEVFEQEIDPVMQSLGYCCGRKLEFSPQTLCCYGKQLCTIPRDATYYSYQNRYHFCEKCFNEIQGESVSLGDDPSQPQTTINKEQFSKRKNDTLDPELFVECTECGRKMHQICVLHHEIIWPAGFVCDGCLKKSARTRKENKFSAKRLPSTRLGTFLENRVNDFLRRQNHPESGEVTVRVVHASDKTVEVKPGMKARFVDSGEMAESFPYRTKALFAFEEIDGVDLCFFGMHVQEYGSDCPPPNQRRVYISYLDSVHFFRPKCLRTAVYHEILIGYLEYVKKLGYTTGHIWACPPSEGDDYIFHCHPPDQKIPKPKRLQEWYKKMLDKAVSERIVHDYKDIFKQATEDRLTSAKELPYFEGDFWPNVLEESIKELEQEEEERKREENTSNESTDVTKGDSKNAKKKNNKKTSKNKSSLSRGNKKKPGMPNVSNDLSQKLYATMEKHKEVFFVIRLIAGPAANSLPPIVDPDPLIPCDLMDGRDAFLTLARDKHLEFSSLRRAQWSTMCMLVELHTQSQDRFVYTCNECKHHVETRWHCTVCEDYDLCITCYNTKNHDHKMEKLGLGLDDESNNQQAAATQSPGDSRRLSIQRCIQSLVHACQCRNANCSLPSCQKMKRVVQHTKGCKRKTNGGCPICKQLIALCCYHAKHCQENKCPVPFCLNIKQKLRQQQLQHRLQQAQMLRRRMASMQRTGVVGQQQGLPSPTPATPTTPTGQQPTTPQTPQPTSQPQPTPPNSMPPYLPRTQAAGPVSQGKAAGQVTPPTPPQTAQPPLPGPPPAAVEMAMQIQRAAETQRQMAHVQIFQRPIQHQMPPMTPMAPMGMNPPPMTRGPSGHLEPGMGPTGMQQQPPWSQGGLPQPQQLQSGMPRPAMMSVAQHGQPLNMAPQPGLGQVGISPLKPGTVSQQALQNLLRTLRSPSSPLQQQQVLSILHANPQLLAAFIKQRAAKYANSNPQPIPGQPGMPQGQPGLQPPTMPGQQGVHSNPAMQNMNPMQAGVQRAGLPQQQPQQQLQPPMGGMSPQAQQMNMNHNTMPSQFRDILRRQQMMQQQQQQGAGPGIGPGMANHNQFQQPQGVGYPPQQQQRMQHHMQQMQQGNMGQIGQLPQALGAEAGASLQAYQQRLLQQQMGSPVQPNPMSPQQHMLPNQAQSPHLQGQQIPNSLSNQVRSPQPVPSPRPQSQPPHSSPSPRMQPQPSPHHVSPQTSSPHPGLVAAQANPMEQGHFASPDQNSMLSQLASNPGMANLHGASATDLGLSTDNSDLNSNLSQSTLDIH

T1 sequence (Q09472 whole entry, the tested form may be a part): as above
T1 sequence (Q16665 whole entry, the tested form may be a part): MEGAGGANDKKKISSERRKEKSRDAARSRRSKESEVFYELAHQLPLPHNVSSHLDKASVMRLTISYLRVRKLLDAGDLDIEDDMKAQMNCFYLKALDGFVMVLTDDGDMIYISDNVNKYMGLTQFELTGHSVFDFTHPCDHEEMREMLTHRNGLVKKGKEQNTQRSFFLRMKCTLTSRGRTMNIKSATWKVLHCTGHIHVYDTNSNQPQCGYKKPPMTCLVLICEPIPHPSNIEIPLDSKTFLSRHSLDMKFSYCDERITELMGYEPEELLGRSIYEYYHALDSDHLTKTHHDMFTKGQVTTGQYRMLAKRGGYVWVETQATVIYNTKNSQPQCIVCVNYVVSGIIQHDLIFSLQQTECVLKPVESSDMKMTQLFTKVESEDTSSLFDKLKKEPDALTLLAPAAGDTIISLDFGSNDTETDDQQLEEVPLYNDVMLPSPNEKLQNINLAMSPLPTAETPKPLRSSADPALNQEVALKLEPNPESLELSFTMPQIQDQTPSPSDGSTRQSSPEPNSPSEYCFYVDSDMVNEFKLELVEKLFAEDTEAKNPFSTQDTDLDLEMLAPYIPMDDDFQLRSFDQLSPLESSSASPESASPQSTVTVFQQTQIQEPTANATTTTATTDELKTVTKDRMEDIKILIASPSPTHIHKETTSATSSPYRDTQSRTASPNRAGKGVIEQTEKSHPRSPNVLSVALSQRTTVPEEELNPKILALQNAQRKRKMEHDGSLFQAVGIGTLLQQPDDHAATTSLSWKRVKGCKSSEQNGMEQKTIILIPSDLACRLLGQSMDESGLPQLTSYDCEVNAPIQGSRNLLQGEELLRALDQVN

Compound: [N-]=[N+]=Nc1cc(O)c(C(=O)Nc2ccc([N+](=O)[O-])cc2Cl)cc1Cl
Activity (HeLa [1]): inactive

Compound: C[C@@]12C(=O)OC(=O)[C@]1(C)[C@H]1CC[C@@H]2O1 [CANTHARIDIN]
IC50 [2]: 5.63 µM

Compound: O=C(Nc1ccc([N+](=O)[O-])cc1Cl)c1cc(Cl)ccc1O
Activity (HeLa [1]): inactive | Activity (HeLa [3]): inactive | Activity (HeLa [4]): Active | Activity (HeLa [5]): Active | Activity (HeLa [6]): inactive | Activity (HeLa [7]): Active | Activity (HeLa [8]): inactive

Compound: Fc1ccc(C(c2ccc(F)cc2)N2CCN(C/C=C/c3ccccc3)CC2)cc1 [FLUNARIZINE HYDROCHLORIDE]
IC50 [2]: 9.01 µM

IC50 [2]: 14.3 µM
Compound: OCCN1CCN(CCCN2c3ccccc3Sc3ccc(Cl)cc32)CC1 [PERPHENAZINE]
Activity (HeLa [1]): inactive

IC50 [9]: 4.4 µM
Compound: COC(=O)c1ccc(O)c(NC(=O)COc2ccc(C34CC5CC(CC(C5)C3)C4)cc2)c1

IC50 [10]: 1.38 µM
Compound: COC1=C(N)C(=O)c2nc(-c3nc(C(=O)O)c(C)c(-c4ccc(OC)c(OC)c4O)c3N)ccc2C1=O [STREPTONIGRIN]

IC50 [11]: 0.53 µM | IC50 [10]: 0.0513 µM
Compound: CC(C)C[C@@H]1NCCN([C@@H](CC(C)C)C(=O)N2CCN([C@@H](CCC(N)=O)C(N)=O)C(=O)[C@@H]2C)C1=O

— ChEMBL document CHEMBL6109074 (Bioorg Med Chem, 2025)
